We go through 17 compounds from patent publication US20240239766A1, “3-AMINO PIPERIDYL SODIUM CHANNEL INHIBITORS” (Genentech, Inc., priority 2021, published 2024).

The structures appear in SMILES notation. Counter-ions that a name gives are not always drawn.

The assay deals with hNav1.7 (Homo sapiens (Human), UniProt Q15858). The experiment in a line: Patch voltage clamp electrophysiology assay (EP), Syncropatch 384PE, CHO cells expressing Nav1.7. Format: cell-based. The following applies: holding potential −50 mV; 7.5 min compound incubation; read-out: EP SP hNav1.7 EVO (IC50). From the text: Example 101c: Electrophysiological Assay (EP) (In Vitro Assay)
Chain of hNav1.7 (Q15858 other isoform, or with tags, fused parts or gaps): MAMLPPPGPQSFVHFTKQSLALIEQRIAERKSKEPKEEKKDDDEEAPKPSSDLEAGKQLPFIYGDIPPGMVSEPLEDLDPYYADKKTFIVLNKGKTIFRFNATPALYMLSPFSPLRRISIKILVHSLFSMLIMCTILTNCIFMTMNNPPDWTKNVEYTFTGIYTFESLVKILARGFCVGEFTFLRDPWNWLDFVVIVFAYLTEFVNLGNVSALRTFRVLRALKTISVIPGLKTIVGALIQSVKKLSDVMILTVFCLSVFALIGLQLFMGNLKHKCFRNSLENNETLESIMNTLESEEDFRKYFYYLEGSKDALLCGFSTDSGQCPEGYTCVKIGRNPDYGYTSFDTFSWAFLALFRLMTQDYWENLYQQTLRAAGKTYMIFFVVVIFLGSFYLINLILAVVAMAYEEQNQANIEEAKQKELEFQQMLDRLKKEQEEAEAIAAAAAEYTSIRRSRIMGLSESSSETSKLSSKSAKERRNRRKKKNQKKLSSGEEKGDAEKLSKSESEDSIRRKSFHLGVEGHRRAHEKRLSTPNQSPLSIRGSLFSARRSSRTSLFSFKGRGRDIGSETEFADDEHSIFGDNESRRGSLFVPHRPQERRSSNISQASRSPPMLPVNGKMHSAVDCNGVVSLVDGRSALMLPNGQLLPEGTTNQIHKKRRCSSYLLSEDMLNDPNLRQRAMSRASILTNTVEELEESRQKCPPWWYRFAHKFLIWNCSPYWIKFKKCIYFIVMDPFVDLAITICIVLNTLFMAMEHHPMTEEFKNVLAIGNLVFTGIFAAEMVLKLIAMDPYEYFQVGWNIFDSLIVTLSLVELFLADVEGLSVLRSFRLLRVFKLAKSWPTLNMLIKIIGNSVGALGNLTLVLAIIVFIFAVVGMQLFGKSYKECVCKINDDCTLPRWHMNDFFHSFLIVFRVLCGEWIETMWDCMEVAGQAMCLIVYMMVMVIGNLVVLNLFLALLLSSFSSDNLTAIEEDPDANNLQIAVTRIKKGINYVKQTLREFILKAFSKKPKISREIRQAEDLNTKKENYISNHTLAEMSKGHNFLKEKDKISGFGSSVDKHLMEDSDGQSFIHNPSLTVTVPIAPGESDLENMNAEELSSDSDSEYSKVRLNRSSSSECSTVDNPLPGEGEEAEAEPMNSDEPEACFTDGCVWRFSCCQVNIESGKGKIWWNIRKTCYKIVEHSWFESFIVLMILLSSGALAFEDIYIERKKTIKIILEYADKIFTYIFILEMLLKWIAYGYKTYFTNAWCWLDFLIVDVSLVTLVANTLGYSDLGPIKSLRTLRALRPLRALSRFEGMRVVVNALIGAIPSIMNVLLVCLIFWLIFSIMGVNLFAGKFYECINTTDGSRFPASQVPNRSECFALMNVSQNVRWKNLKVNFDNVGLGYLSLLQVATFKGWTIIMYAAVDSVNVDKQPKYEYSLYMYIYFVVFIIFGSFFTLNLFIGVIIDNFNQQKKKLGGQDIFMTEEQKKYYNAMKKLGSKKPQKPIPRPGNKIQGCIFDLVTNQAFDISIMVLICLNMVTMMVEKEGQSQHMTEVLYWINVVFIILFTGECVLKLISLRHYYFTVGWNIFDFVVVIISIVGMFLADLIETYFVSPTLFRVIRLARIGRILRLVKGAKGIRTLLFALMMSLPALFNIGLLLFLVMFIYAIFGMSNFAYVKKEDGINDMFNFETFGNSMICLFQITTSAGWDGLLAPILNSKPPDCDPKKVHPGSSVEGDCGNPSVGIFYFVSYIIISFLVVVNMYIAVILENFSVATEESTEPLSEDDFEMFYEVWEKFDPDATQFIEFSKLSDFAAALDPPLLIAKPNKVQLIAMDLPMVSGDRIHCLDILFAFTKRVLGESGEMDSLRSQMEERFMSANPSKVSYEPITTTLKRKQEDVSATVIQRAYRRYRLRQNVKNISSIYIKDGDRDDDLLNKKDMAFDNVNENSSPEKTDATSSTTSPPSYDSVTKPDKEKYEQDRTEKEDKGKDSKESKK
Patch voltage clamp electrophysiology allows for the direct measurement and quantification of block of voltage-gated sodium channels (NaV's), and allows the determination of the time- and voltage-dependence of block which has been interpreted as differential binding to the resting, open, and inactivated states of the sodium channel (Hille, B., Journal of General Physiology (1977), 69: 497-515).
The following voltage clamp electrophysiology studies are performed on representative compounds using cells heterologously expressing Nav1.7 or Nav1.5 channels. cDNAsfor Nav1.7 (NM_002977) and Nav1.5 (AC137587) are stably expressed in Chinese Hamstr Ovary (CHO) cells and CHL (Chinese Hamster Lung) cells respectively. Sodium currents are measured in the whole-cell configuration using Syncropatch 384PE (Nanlon Technologies, Germany). 1NPC®-384 chips with custom medium resistance and single hole mode are used. Internal solution consists of (in mM): […], 10 CsCl, 20 EGTA, and 10 Hepes (pH adjusted to 7.2); and external solution contains (in mM): 60 NMDG, 80 NaCl, 4 KCl, 1 MgCl2, 2 CaCl2), 2 D-Glucose monohydrate, 10 Hepes (pH adjusted to 7.4 with NaOH).
After system flushing, testing compounds are dissolved in external solution containing 0.1% Pluronic F-127. The chip is moved into the measuring head and the instrument primes the chip with external and internal solutions. 10 μl cells are added to the chip from a cell hotel, and a negative pressure of −50 mBar is applied to form a seal. Following treatment with seal enhancer solution and wash-off with external solution, negative pressure of −250 mbar is applied for 1 second to achieve the whole-cell configuration, followed by three washing steps in external solution. 20 μl of compounds is added to 40 μl in each well (1:3 dilution of compounds), and after mixing, 20 μl is removed so the volume is retained at 40 ul. After approximately 13 minutes recordings, 20 μl/well of 2 uM TTX, or 333 uM Tetracaine (for Nav1.5) is added to achieve full block.
For voltage protocol, an holding potential of −50 mV is applied during the whole experiment. A depolarizing step is applied to −10 mV for 10 ms, followed by a hyperpolarization step to −150 mV for 20 ms to allow channel recovery from inactivation. A second depolarizing step is applied from −150 mV to −10 mV for 10 ms, where currents are measured to derive blocking effects of compounds. Inhibition is determined based on 7.5 min of compound incubation.
For orientation: Patch clamp records ionic current or voltage across a cell membrane.

In the case of `CN(C)[C@@]1(CCc2cccc(Cl)c2)CCCN(c2cc(F)c(S(=O)(=O)Nc3ccncn3)c(F)c2)C1` (single isomer, unassigned) [Example 90, formate], the IC50 (commonly the midpoint of a concentration-inhibition curve) came out at 4.46 µM. Consider `CN(C)[C@@]1(CCc2cc(C(F)(F)F)ccc2Cl)CCCN(c2cc(F)c(S(=O)(=O)Nc3ccncn3)c(F)c2)C1` (single isomer, unassigned) [Example 32], for which the IC50 stood at 0.425 µM.

Regarding `CN(C)[C@@]1(C2CC(c3cccc(C(F)(F)F)c3)C2)CCCN(c2cc(F)c(S(=O)(=O)Nc3ccncn3)c(F)c2)C1` (stereo partly drawn) [Example 94, 4-((R)-3-(Dimethylamino)-3-((1r,3R)-3-(3-(trifluoromethyl)phenyl)-cyclobutyl)piperidin-1-yl)-2,6-difluoro-N-(pyrimidin-4-yl)benzenesulfonamide], the IC50 was 0.127 µM. Regarding `O=S(=O)(Nc1ccncn1)c1ccc(N2CCC[C@@](CCc3cccc(C(F)(F)F)c3)(N3CCCCC3)C2)cc1F` (single isomer, unassigned) [Example 26, formate], the IC50 is 0.0195 µM. With `CN1CC(CN(C)[C@]2(CCc3cccc(C(F)(F)F)c3)CCCN(c3ccc(S(=O)(=O)Nc4ccncn4)c(F)c3)C2)C1` (single isomer, unassigned) [Example 30, formate], the IC50 stood at 0.0135 µM. In the case of `CN(C)[C@]1(CCc2cccc(C(F)(F)F)c2Cl)CCCN(c2cc(F)c(S(=O)(=O)Nc3ccncn3)c(F)c2)C1` (single isomer, unassigned) [Example 41] it was 0.00107 µM. As to `Cc1cc(N2CCC[C@](CCc3cccc(C(F)(F)F)c3)(N(C)C)C2)ccc1S(=O)(=O)Nc1ccncn1` (single isomer, unassigned) [Example 72, formate], the half-inhibitory concentration (IC50) was determined as 0.0092 µM.

As for `Cc1ccc(CC[C@@]2(N(C)C)CCCN(c3cc(F)c(S(=O)(=O)Nc4ccncn4)c(F)c3)C2)cc1C(F)(F)F` (single isomer, unassigned) [Example 85], the IC50 came out at 0.25 µM. Then `CN(C)[C@]1(CCc2ccc(C(F)(F)F)cc2Cl)CCCN(c2cc(F)c(S(=O)(=O)Nc3ccncn3)c(F)c2)C1` (single isomer, unassigned) [Example 57], with 0.00504 µM; and `CN1CC(N(C)[C@@]2(CCc3cccc(C(F)(F)F)c3)CCCN(c3ccc(S(=O)(=O)Nc4ccncn4)c(F)c3)C2)C1` (single isomer, unassigned) [Example 34], with 0.00182 µM; and `CN(C)[C@]1(C2CC(c3cccc(C(F)(F)F)c3)C2)CCCN(c2cc(F)c(S(=O)(=O)Nc3ccncn3)c(F)c2)C1` (stereo partly drawn) [Example 96, 4-((S)-3-(Dimethylamino)-3-((1s,3R)-3-(3-(trifluoromethyl)-phenyl)cyclobutyl)piperidin-1-yl)-2,6-difluoro-N-(pyrimidin-4-yl)benzenesulfonamide], with 0.00181 µM. Then `CN(C)CCN(C)[C@@]1(CCc2cccc(C(F)(F)F)c2)CCCN(c2ccc(S(=O)(=O)Nc3ccncn3)c(F)c2)C1` (single isomer, unassigned) [Example 27, formate], with 2.15 µM.

Consider `CN(C)[C@]1(CCc2cccc(C(F)(F)F)c2)CCCN(c2cc(F)c(S(=O)(=O)Nc3ccon3)c(F)c2)C1` (single isomer, unassigned) [Example 59], for which the IC50 is 0.016 µM. On to `CCN(C)[C@@]1(CCc2cccc(C(F)(F)F)c2)CCCN(c2cc(F)c(S(=O)(=O)Nc3ccncn3)c(F)c2)C1` (single isomer, unassigned) [Example 78], for which the IC50 was found to be 0.974 µM. Then `CN(C)[C@@]1(CCc2ccccc2)CCCN(c2ccc(S(=O)(=O)Nc3ccncn3)c(F)c2)C1` (single isomer, unassigned) [Example 5], with 10 µM; and `CN(C)[C@@]1(CCc2ccc(C(F)(F)F)cc2)CCCN(c2ccc(S(=O)(=O)Nc3ccncn3)c(F)c2)C1` (single isomer, unassigned) [Example 7], with 0.0124 µM; and `Cc1cc(N2CCC[C@@](CCc3cccc(C(F)(F)F)c3)(N(C)C)C2)ccc1S(=O)(=O)Nc1ccncn1` (single isomer, unassigned) [Example 73, formate], with 0.673 µM.
